These compounds were tested against TARP γ8 dependent AMPA receptor (GRIA1o-CACNG8 fusion construct) (Homo sapiens (Human), UniProt P42261+Q8WXS5) (assay: Calcium flux assay (FLIPR), inhibition of glutamate response of GluA1o-γ8 channel). Conditions: HEK293 cells stably expressing GRIA1o-CACNG8 fusion; calcium flux after 15 μM glutamate; negative log of the IC50 in molar.
Type: cell-based
Procedure, shortened: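 HEK293 clonal line stably expressing a GRIA1o-CACNG8 fusion (1:1 GluA1o:γ8), loaded with Calcium-5/6 dye plus compound in HEPES buffer pH 7.4. FLIPR calcium flux read after 15 μM glutamate; normalized to no-compound and 10 μM CP465022 controls. Four-parameter logistic fit gives IC50, reported as pIC50.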

TARP γ8 dependent AMPA receptor (GRIA1o-CACNG8 fusion construct), sequence (P42261 other isoform, or with tags, fused parts or gaps): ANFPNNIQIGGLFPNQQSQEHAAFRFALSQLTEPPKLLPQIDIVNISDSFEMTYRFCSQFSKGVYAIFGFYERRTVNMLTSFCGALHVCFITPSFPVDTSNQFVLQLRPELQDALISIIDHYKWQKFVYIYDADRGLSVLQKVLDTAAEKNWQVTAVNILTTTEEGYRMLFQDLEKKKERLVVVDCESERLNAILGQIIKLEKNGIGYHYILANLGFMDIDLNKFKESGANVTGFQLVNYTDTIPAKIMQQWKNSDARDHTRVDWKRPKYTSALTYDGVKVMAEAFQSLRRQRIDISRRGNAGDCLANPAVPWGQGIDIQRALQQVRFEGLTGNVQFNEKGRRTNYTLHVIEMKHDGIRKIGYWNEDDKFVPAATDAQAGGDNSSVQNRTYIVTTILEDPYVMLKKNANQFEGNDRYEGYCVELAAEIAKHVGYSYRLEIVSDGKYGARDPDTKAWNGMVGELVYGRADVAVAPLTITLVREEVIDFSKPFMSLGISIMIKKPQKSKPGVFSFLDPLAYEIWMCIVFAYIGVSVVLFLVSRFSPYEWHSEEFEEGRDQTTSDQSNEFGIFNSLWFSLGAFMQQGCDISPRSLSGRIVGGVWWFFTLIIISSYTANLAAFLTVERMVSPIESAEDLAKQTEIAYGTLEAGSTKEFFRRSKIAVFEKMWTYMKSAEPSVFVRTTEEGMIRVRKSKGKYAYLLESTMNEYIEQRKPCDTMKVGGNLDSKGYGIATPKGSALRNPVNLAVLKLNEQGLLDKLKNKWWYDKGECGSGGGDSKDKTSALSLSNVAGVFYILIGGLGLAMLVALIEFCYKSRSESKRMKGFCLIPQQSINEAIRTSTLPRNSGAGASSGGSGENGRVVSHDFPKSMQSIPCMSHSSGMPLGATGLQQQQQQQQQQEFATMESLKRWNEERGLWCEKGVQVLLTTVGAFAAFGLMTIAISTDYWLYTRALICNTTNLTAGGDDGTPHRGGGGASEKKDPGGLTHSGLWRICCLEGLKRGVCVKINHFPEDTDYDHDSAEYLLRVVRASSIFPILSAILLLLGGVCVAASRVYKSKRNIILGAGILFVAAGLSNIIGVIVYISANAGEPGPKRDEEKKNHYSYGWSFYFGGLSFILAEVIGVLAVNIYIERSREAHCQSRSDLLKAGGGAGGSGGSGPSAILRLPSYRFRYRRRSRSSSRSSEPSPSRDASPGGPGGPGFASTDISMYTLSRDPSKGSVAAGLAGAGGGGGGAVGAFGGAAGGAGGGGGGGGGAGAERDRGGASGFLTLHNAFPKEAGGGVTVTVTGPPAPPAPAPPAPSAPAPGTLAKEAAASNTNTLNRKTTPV

Row | SMILES | IC50 | pIC50
1 | CCc1nc2c(CC)cc(C(F)(F)F)c(-c3cc(C)c4[nH]ncc4c3)n2n1 [Example 90, 2,8-Diethyl-5-(7-methyl-1H-indazol-5-yl)-6-(trifluoromethyl)-[1,2,4]triazolo[1,5-a]pyridine] | 3.16 nM | 
2 | CCc1cc(C(F)F)c(-c2cc(Cl)c3[nH]ncc3c2)n2nc(C(F)(F)F)nc12 [Example 91, 5-(7-Chloro-1H-indazol-5-yl)-6-(difluoromethyl)-8-ethyl-2-(trifluoromethyl)-[1,2,4]triazolo[1,5-a]pyridine] | 0.501 nM | 
3 | CCc1cc(C(F)F)c(-c2cc(C)c3[nH]ncc3c2)n2nc(C(F)(F)F)nc12 [Example 92, 6-(Difluoromethyl)-8-ethyl-5-(7-methyl-1H-indazol-5-yl)-2-(trifluoromethyl)-[1,2,4]triazolo[1,5-a]pyridine] | 1 nM | 
4 | CCCc1nc2c(C)cc(C(F)F)c(-c3cc(C)c4[nH]ncc4c3)n2n1 [Example 95, 6-(Difluoromethyl)-8-methyl-5-(7-methyl-1H-indazol-5-yl)-2-propyl-[1,2,4]triazolo[1,5-a]pyridine] | 3.16 nM | 
5 | CCCc1nc2c(Cl)cc(C(F)(F)F)c(-c3cc(Cl)c4c(c3)CC(=O)N4)n2n1 [Example 97, 7-Chloro-5-(8-chloro-2-propyl-6-(trifluoromethyl)-[1,2,4]triazolo[1,5-a]pyridin-5-yl)indolin-2-one] | 0.501 nM | 
6 | CCCc1nc2c(Cl)cc(C(F)(F)F)c(-c3cc(C)c4c(c3)CC(=O)N4)n2n1 [Example 98, 5-(8-Chloro-2-propyl-6-(trifluoromethyl)-[1,2,4]triazolo[1,5-a]pyridin-5-yl)-7-methylindolin-2-one] | 0.794 nM | 
7 | CCc1nc2c(C)cc(C(F)(F)F)c(-c3cc(Cl)c4c(c3)CC(=O)N4)n2n1 [Example 100, 7-Chloro-5-(2-ethyl-8-methyl-6-(trifluoromethyl)-[1,2,4]triazolo[1,5-a]pyridin-5-yl)indolin-2-one] | 0.631 nM | 
8 | CCc1nc2c(C)cc(C(F)(F)F)c(-c3cc4c(c(C(F)(F)F)c3)NC(=O)C4)n2n1 [Example 102, 5-(2-Ethyl-8-methyl-6-(trifluoromethyl)-[1,2,4]triazolo[1,5-a]pyridin-5-yl)-7-(trifluoromethyl)indolin-2-one] | 1.58 nM | 
9 | COc1cc(-c2c(C(F)(F)F)cc(C)c3nc(C(F)(F)F)nn23)cc2c1NC(=O)C2 [Example 106, 7-Methoxy-5-(8-methyl-2,6-bis(trifluoromethyl)-[1,2,4]triazolo[1,5-a]pyridin-5-yl)indolin-2-one] | 1.26 nM | 
10 | Cc1cc(-c2c(C(F)(F)F)cc(C)c3nc(C(F)(F)F)nn23)cc2cn[nH]c12 [Example 107, 8-Methyl-5-(7-methyl-1H-indazol-5-yl)-2,6-bis(trifluoromethyl)-[1,2,4]triazolo[1,5-a]pyridine] | 0.501 nM | 
11 | Cc1cc(C(F)(F)F)c(-c2cc(C#N)c3c(c2)CC(=O)N3)n2nc(C(F)(F)F)nc12 [Example 108, 5-(8-Methyl-2,6-bis(trifluoromethyl)-[1,2,4]triazolo[1,5-a]pyridin-5-yl)-2-oxoindoline-7-carbonitrile] | 3.98 nM | 
12 | Cc1cc(C(F)F)c(-c2cc(Cl)c3[nH]ncc3c2)n2nc(C(F)(F)F)nc12 [Example 109, 5-(7-Chloro-1H-indazol-5-yl)-6-(difluoromethyl)-8-methyl-2-(trifluoromethyl)-[1,2,4]triazolo[1,5-a]pyridine] |  | 9.6
13 | Cc1cc(C(F)F)c(-c2cc(Cl)c3c(c2)CC(=O)N3)n2nc(C(F)(F)F)nc12 [Example 110, 7-Chloro-5-(6-(difluoromethyl)-8-methyl-2-(trifluoromethyl)-[1,2,4]triazolo[1,5-a]pyridin-5-yl)indolin-2-one] | 0.794 nM | 
14 | Cc1cc(-c2c(C(F)F)cc(C)c3nc(C(F)(F)F)nn23)cc2cn[nH]c12 [Example 111, 6-(Difluoromethyl)-8-methyl-5-(7-methyl-1H-indazol-5-yl)-2-(trifluoromethyl)-[1,2,4]triazolo[1,5-a]pyridine] | 0.794 nM | 
15 | CCc1nc2c(C)cc(C(F)F)c(-c3cc(Cl)c4[nH]ncc4c3)n2n1 [Example 115, 5-(7-Chloro-1H-indazol-5-yl)-6-(difluoromethyl)-2-ethyl-8-methyl-[1,2,4]triazolo[1,5-a]pyridine] | 2 nM | 
16 | Cc1nc2c(C)cc(C(F)(F)F)c(-c3cc(Cl)c4[nH]ncc4c3)n2n1 [Example 116, 5-(7-Chloro-1H-indazol-5-yl)-2,8-dimethyl-6-(trifluoromethyl)-[1,2,4]triazolo[1,5-a]pyridine] | 2.51 nM | 
17 | CCOc1nc2c(C)cc(C(F)(F)F)c(-c3cc(Cl)c4[nH]ncc4c3)n2n1 [Example 117, 5-(7-Chloro-1H-indazol-5-yl)-2-ethoxy-8-methyl-6-(trifluoromethyl)-[1,2,4]triazolo[1,5-a]pyridine] | 2.51 nM | 
18 | FC(F)(F)c1ccc2cc(C3CC3)nn2c1-c1cc(Cl)c2[nH]ncc2c1 [Example 118, 7-Chloro-5-(2-cyclopropyl-6-(trifluoromethyl)pyrazolo[1,5-a]pyridin-7-yl)-1H-indazole] |  | 10.2

The remaining lines, values ahead:

Row | IC50 | pIC50 | SMILES
19 | 0.158 nM |  | CCc1cc(C(F)F)c(-c2cc(Cl)c3[nH]ncc3c2)n2nc(C3CC3)nc12 [Example 93, 5-(7-Chloro-1H-indazol-5-yl)-2-cyclopropyl-6-(difluoromethyl)-8-ethyl-[1,2,4]triazolo[1,5-a]pyridine]
20 | 0.398 nM |  | CCc1cc(C(F)F)c(-c2cc(C)c3[nH]ncc3c2)n2nc(C3CC3)nc12 [Example 94, 2-Cyclopropyl-6-(difluoromethyl)-8-ethyl-5-(7-methyl-1H-indazol-5-yl)-[1,2,4]triazolo[1,5-a]pyridine]
21 | 0.398 nM |  | CCCc1nc2c(Cl)cc(C(F)(F)F)c(-c3cc(Cl)c4[nH]ncc4c3)n2n1 [Example 96, 8-Chloro-5-(7-chloro-1H-indazol-5-yl)-2-propyl-6-(trifluoromethyl)-[1,2,4]triazolo[1,5-a]pyridine]
22 | 0.251 nM |  | Cc1cc(-c2c(C(F)(F)F)cc(C)c3nc(C4CC4)nn23)cc2c1NC(=O)C2 [Example 99, 5-(2-Cyclopropyl-8-methyl-6-(trifluoromethyl)-[1,2,4]triazolo[1,5-a]pyridin-5-yl)-7-methylindolin-2-one]
23 | 0.316 nM |  | CCc1nc2c(C)cc(C(F)(F)F)c(-c3cc(C(F)(F)F)c4[nH]ncc4c3)n2n1 [Example 101, 2-Ethyl-8-methyl-6-(trifluoromethyl)-5-(7-(trifluoromethyl)-1H-indazol-5-yl)-[1,2,4]triazolo[1,5-a]pyridine]
24 | 0.158 nM |  | Cc1cc(C(F)(F)F)c(-c2cc(Cl)c3c(c2)CC(=O)N3)n2nc(C(F)(F)F)nc12 [Example 103]
25 | 0.158 nM |  | CCc1cc(-c2c(C(F)(F)F)cc(C)c3nc(C(F)(F)F)nn23)cc2c1NC(=O)C2 [Example 104, 7-Ethyl-5-(8-methyl-2,6-bis(trifluoromethyl)-[1,2,4]triazolo[1,5-a]pyridin-5-yl)indolin-2-one]
26 | 0.316 nM |  | Cc1cc(-c2c(C(F)(F)F)cc(C)c3nc(C(F)(F)F)nn23)cc2c1NC(=O)C2 [Example 105, 7-Methyl-5-(8-methyl-2,6-bis(trifluoromethyl)-[1,2,4]triazolo[1,5-a]pyridin-5-yl)indolin-2-one]
27 | 0.1 nM |  | Cc1cc(C(F)F)c(-c2cc(Cl)c3[nH]ncc3c2)n2nc(C3CC3)nc12 [Example 112, 5-(7-Chloro-1H-indazol-5-yl)-2-cyclopropyl-6-(difluoromethyl)-8-methyl-[1,2,4]triazolo[1,5-a]pyridine]
28 | 0.316 nM |  | Cc1cc(C(F)F)c(-c2cc(Cl)c3c(c2)CC(=O)N3)n2nc(C3CC3)nc12 [Example 113, 7-Chloro-5-(2-cyclopropyl-6-(difluoromethyl)-8-methyl-[1,2,4]triazolo[1,5-a]pyridin-5-yl)indolin-2-one]
29 | 0.398 nM |  | Cc1cc(-c2c(C(F)F)cc(C)c3nc(C4CC4)nn23)cc2cn[nH]c12 [Example 114, 2-Cyclopropyl-6-(difluoromethyl)-8-methyl-5-(7-methyl-1H-indazol-5-yl)-[1,2,4]triazolo[1,5-a]pyridine]
30 | 0.0501 nM |  | Cc1cc(-c2c(C(F)F)ccc3cc(C(F)(F)F)nn23)cc2c1NC(=O)C2 [Example 119, 5-[6-(Difluoromethyl)-2-(trifluoromethyl)pyrazolo[1,5-a]pyridin-7-yl]-7-methyl-indolin-2-one]
31 | 0.0158 nM |  | FC(F)c1ccc2cc(C(F)(F)F)nn2c1-c1cc(Cl)c2[nH]ncc2c1 [Example 120, 7-(7-Chloro-1H-indazol-5-yl)-6-(difluoromethyl)-2-(trifluoromethyl)pyrazolo[1,5-a]pyridine]
32 | 0.0251 nM |  | Cc1cc(-c2c(C(F)F)ccc3cc(C(F)(F)F)nn23)cc2cn[nH]c12 [Example 121, 6-(Difluoromethyl)-7-(7-methyl-1H-indazol-5-yl)-2-(trifluoromethyl)pyrazolo[1,5-a]pyridine]
33 | 0.0501 nM |  | Cc1cc(-c2c(C(F)F)cc(C)c3cc(C(F)(F)F)nn23)cc2c1NC(=O)C2 [Example 122, 5-[6-(Difluoromethyl)-4-methyl-2-(trifluoromethyl)pyrazolo[1,5-a]pyridin-7-yl]-7-methyl-indolin-2-one]
34 | 0.126 nM |  | Cc1cc(-c2c(C(F)F)cc(C)c3cc(C(F)(F)F)nn23)cc2cn[nH]c12 [Example 123, 6-(Difluoromethyl)-4-methyl-7-(7-methyl-1H-indazol-5-yl)-2-(trifluoromethyl)pyrazolo[1,5-a]pyridine]
35 | 0.251 nM |  | Cc1cc(C(F)F)c(-c2cc(Cl)c3c(c2)CC(=O)N3)n2nc(C(F)(F)F)cc12 [Example 124, 7-Chloro-5-[6-(difluoromethyl)-4-methyl-2-(trifluoromethyl)pyrazolo[1,5-a]pyridin-7-yl]indolin-2-one]
36 | 0.1 nM |  | Cc1cc(C(F)F)c(-c2cc(Cl)c3[nH]ncc3c2)n2nc(C(F)(F)F)cc12 [Example 125, 7-(7-Chloro-1H-indazol-5-yl)-6-(difluoromethyl)-4-methyl-2-(trifluoromethyl)pyrazolo[1,5-a]pyridine]
